Reference: PubChem BioAssay (NCI)
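Where inhibition never reached the appropriate level, the endpoint shown equals the highest concentration tested. Otherwise, values were interpolated linearly from a five-concentration, 48-hour dose response in 96-well plates. The concentration for 50% growth inhibition is given as GI50. TGI is the concentration that stops growth completely.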

How the values were obtained:
Test in all cases: NCI tumour cell line growth inhibition, 48 h
[1] = test system: SK-MEL-28 melanoma
[2] = test system: MALME-3M melanoma
[3] = test system: HCT-15 colon
[4] = test system: OVCAR-4 ovarian
[5] = test system: RPMI-8226 leukemia
[6] = test system: SF-295 CNS
[7] = test system: M14 melanoma
[8] = test system: HL-60(TB) leukemia
[9] = test system: PC-3 prostate
[10] = test system: MDA-MB-435

Row | SMILES | TGI [1] | TGI [2] | TGI [3] | TGI [4] | TGI [5] | TGI [6] | TGI [7] | TGI [8] | GI50 [8] | GI50 [1] | GI50 [2] | GI50 [3] | GI50 [4] | GI50 [5] | GI50 [6] | GI50 [9] | TGI [9] | GI50 [7] | TGI [10] | GI50 [10]
1 | N#Cc1c([N+](=O)[O-])cc(C(F)(F)F)cc1[N+](=O)[O-] | 21.2 µM | 25.5 µM | 24.9 µM | 5.57 µM | 6.28 µM | 10.3 µM | 17.1 µM | – | – | – | – | – | – | – | – | – | – | – | – | –
2 | CC(=O)OC1COC(N2C(=O)C(=O)c3c(C)cc(Cl)nc32)C(OC(C)=O)C1OC(C)=O (stereo unspecified) | > 100 µM | > 100 µM | > 100 µM | > 100 µM | > 100 µM | > 100 µM | > 100 µM | > 100 µM | – | – | – | – | – | – | – | – | – | – | – | –
3 | CCOC(=O)c1cc2c(n1Cc1cccc(OC)c1)-c1oncc1CC2 | > 100 µM | 76.5 µM | > 100 µM | > 100 µM | > 100 µM | 49.7 µM | 35.3 µM | 1.63 µM | 0.297 µM | 0.97 µM | 0.571 µM | 0.521 µM | 9.6 µM | 3.52 µM | 0.433 µM | 5.19 µM | > 100 µM | 0.432 µM | – | –
4 | C[N+](C)(C)CC(=O)N/N=C(/C=C/c1ccccc1)CC1OC(=O)c2ccccc21 (stereo unspecified) | > 100 µM | > 100 µM | > 100 µM | > 100 µM | > 100 µM | > 10 µM | > 100 µM | > 100 µM | – | – | – | – | – | – | – | – | – | – | – | –
5 | CCCCC1(N=[N+]=[N-])C(=O)c2cccc3c2N(CCC3)C1=O (stereo unspecified) | > 100 µM | > 100 µM | > 100 µM | > 100 µM | > 100 µM | > 100 µM | > 100 µM | – | – | – | – | – | – | – | – | – | > 100 µM | – | > 100 µM | –
6 | O=C(c1ccccc1)c1nnn(Cc2cccc(Cl)c2)c1C(=O)c1ccccc1 | > 100 µM | > 100 µM | > 100 µM | > 100 µM | > 100 µM | > 100 µM | > 100 µM | > 100 µM | – | – | – | – | – | – | – | – | – | – | – | –
7 | [N-]=[N+]=Nc1ccc(S(=O)(=O)Oc2cc(OS(=O)(=O)c3ccc(N=[N+]=[N-])cc3)cc(OS(=O)(=O)c3ccc(N=[N+]=[N-])cc3)c2)cc1 | > 100 µM | > 100 µM | > 100 µM | > 10 µM | > 100 µM | > 100 µM | > 100 µM | – | – | – | – | – | – | – | – | – | – | – | – | –
8 | CCN(CC)CCN(C)CC(C)(C)C(=O)/C=C/c1ccccc1 | 30.3 µM | 28.5 µM | 28.4 µM | 24.3 µM | 36 µM | 29.4 µM | 25.7 µM | 28.9 µM | – | – | – | – | – | – | – | – | – | – | – | –
9 | C=CCCc1cc(OC)ccc1CN(C)C(C)(C)CO | > 100 µM | > 100 µM | > 100 µM | > 100 µM | > 100 µM | > 100 µM | – | – | – | – | – | – | – | – | – | – | – | – | – | –
10 | COc1ccc(C(=O)c2cc3c(N)c(C(=O)Nc4cccc(Cl)c4)sc3nc2C)cc1 | > 33.3 µM | > 33.3 µM | > 33.3 µM | > 33.3 µM | > 33.3 µM | > 33.3 µM | > 33.3 µM | > 33.3 µM | 1.09 µM | 3.03 µM | 1.28 µM | 1.32 µM | 9.48 µM | 1.19 µM | 1.08 µM | 1.48 µM | > 33.3 µM | 1.08 µM | – | –
11 | CN1CCC(O)C(CNC23CC4CC(CC(C4)C2)C3)C1 (stereo unspecified) | – | > 100 µM | – | > 100 µM | – | > 100 µM | – | > 100 µM | – | – | – | – | – | – | – | – | – | – | – | –
12 | Cc1c(C(=O)/C=C/c2ccco2)[n+](=O)c2ccccc2n1[O-] | > 100 µM | > 100 µM | – | – | > 100 µM | > 100 µM | > 100 µM | > 100 µM | – | – | – | – | – | – | – | – | – | – | – | –
13 | CC/C(=C(\c1ccccc1)c1ccc(OCCN(C)C)cc1)c1ccccc1 | – | – | – | – | – | – | – | – | 1.78 µM | 1.6 µM | 1.91 µM | 2.01 µM | – | 1.2 µM | – | 2.47 µM | – | 1.02 µM | – | 2.66 µM
14 | COc1ccc(NC(=O)c2ccc(NC3=C(Cl)C(=O)N(Cc4ccccc4)C3=O)cc2)cc1 | 31.6 µM | – | 17.3 µM | 8.35 µM | 8.06 µM | 10.4 µM | 28.6 µM | – | 2.16 µM | 10.1 µM | – | 4.04 µM | 3.01 µM | 2.38 µM | 3.52 µM | 6.74 µM | 19.9 µM | 9.42 µM | 18.3 µM | 5.64 µM
15 | CC(C)c1ccc2c(c1)CCC1C(C)(C)[C@@H](O)CC[C@]21C (stereo partly specified) | > 100 µM | 30.8 µM | > 100 µM | > 100 µM | 52 µM | 43.4 µM | 72.4 µM | 37.6 µM | – | – | – | – | – | – | – | – | – | – | – | –
16 | CC(=O)NNc1nc(C)c(C(/C=C/c2ccc(/C=C/C(=N\NC(=O)c3ccncc3)c3sc(NNC(C)=O)nc3C)cc2)=N/NC(=O)c2ccncc2)s1 | > 100 µM | > 100 µM | > 100 µM | – | > 100 µM | > 100 µM | > 100 µM | > 100 µM | – | – | – | – | – | – | – | – | – | – | – | –
17 | CCCCNC(=S)Nn1c(-c2ccccc2)nc2ccccc2c1=O | > 100 µM | > 100 µM | > 100 µM | > 100 µM | > 100 µM | > 100 µM | > 100 µM | > 100 µM | – | – | – | – | – | – | – | – | – | – | – | –
18 | COc1ccc(C(=O)O/N=C2\CCCC\C2=C/c2ccccc2)cc1 | > 100 µM | – | > 100 µM | 95.8 µM | – | – | > 100 µM | > 100 µM | – | – | – | – | – | – | – | – | – | – | – | –
19 | O=c1[nH]nc(-c2ccccc2)c(-c2ccccc2)c1-n1nc(-c2ccccc2)c2ccccc2c1=O | > 100 µM | > 100 µM | > 100 µM | > 100 µM | > 100 µM | > 100 µM | > 100 µM | – | – | – | – | – | – | – | – | – | – | – | – | –
20 | COc1ccc([C@H]2c3cc(OC)c(OC)cc3C=C(C=O)C2CO)cc1OC (stereo partly specified) | > 100 µM | 7.43 µM | > 100 µM | > 100 µM | > 100 µM | 5.85 µM | > 100 µM | > 100 µM | 3.65 µM | 6.62 µM | 1.84 µM | 5.03 µM | 7.94 µM | 9.22 µM | 1.79 µM | – | – | 4.41 µM | 2.81 µM | 0.914 µM
21 | CN(C)C1(C#N)CCC2(CC1)OCCO2 | > 100 µM | > 100 µM | > 100 µM | > 100 µM | > 100 µM | > 100 µM | > 100 µM | > 100 µM | – | – | – | – | – | – | – | – | – | – | – | –
22 | C=C1C(=O)OC2C1C(OC(=O)/C(=C/C)COC(C)=O)CC1(CO1)C1C(OC(=O)/C(=C/C)CO)C=C(C)C21 (stereo unspecified) | 4.16 µM | 3.32 µM | 4.91 µM | 7.53 µM | 6.56 µM | 20.8 µM | 3.86 µM | 2.34 µM | – | – | – | – | – | – | – | – | – | – | – | –
